Target: T1, GST-PLK1 (Homo sapiens, UniProt P53350)
T1 construct: Full-length, active GST-PLK1 is purified from Sf9 insect cells; made in house; host or cells: Sf9 insect cells
Assay: Biochemical Characterization Assay: GST-PLK1 kinase HTRF assay with GST-p53 substrate
Details: full-length GST-PLK1, GST-p53 and ATP, 37° C. for 35 minutes, HTRF signal
Procedure, shortened: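 Full-length GST-PLK1 from Sf9 cells (3 ug/mL stock) with full-length E. coli GST-p53 substrate in HEPES pH 7 buffer with MgCl2, TCEP, orthovanadate, BSA and Triton X-100; compound stocks 0.6 nM-4 mM in DMSO. Reaction 35 min at 37 °C, EDTA-stopped; phospho-p53 detected by HTRF (Eu anti-rabbit/APC anti-GST).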

T1 sequence (P53350 whole entry): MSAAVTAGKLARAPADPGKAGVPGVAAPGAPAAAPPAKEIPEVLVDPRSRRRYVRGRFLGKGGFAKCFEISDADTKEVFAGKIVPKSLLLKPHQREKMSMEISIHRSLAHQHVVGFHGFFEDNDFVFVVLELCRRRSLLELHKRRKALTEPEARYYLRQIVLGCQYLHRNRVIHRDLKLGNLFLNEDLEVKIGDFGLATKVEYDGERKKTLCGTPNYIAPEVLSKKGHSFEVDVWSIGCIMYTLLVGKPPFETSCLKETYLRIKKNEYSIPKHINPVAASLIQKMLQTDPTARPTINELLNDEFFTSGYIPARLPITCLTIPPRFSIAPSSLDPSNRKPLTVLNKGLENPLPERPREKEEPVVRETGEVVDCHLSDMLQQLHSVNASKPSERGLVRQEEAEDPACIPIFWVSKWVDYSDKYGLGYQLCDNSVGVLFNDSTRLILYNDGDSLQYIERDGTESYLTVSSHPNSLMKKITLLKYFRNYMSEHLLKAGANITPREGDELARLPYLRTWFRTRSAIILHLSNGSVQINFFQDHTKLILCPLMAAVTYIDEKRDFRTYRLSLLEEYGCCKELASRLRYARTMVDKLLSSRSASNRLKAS

Row | SMILES | IC50 [nM]
1 | Cc1cc(C(=O)NC2CCN(C)CC2)ccc1Nc1ncc2c(n1)N(C1CCCC1)CC(C)C(=O)N2C (racemic) [I-8, (rac)-4-(9-Cyclopentyl-5,7-dimethyl-6-oxo-6,7,8,9-tetrahydro-5H-pyrimido[4,5-b][1,4]diazepin-2-ylamino)-3-methyl-N-(1-methyl-piperidin-4-yl)-benzamide] | < 500
2 | COc1cc(C(=O)NC2CCN(C)CC2)ccc1Nc1ncc2c(n1)N(C1CC1)C(C)C(C)C(=O)N2C (racemic) [I-46, (rac)-4-(9-Cyclopropyl-5,7,8-trimethyl-6-oxo-6,7,8,9-tetrahydro-5H-pyrimido[4,5-b][1,4]diazepin-2-ylamino)-3-methoxy-N-(1-methyl-piperidin-4-yl)-benzamide] | < 500
3 | COc1cc(C(=O)NC2CCN(C)CC2)ccc1Nc1ncc2c(n1)N1CCC[C@@H]1CC(=O)N2C [I-102, (3R)-3-methoxy-4-(6-methyl-5-oxo-2,3,3a,4,5,6-hexahydro-1H-6,8,10,10b-tetraaza-benzo[e]azulen-9-ylamino)-N-(1-methyl-piperidin-4-yl)-benzamide] | < 500
4 | CN1CCC(NS(=O)(=O)c2ccc(Nc3ncc4c(n3)N(C3CCCC3)CC(C)(C)C(=O)N4C)cc2)CC1 [I-64, 4-(9-Cyclopentyl-5,7,7-trimethyl-6-oxo-6,7,8,9-tetrahydro-5H-pyrimido[4,5-b][1,4]diazepin-2-ylamino)-N-(1-methyl-piperidin-4-yl)-benzenesulfonamide] | 500 to 5000
5 | CCN1CCC(NC(=O)c2ccc(Nc3ncc4c(n3)N(C3CCCC3)CC(C)C(=O)N4C)cc2Cl)CC1 (racemic) [I-81, (rac)-2-Chloro-4-(9-cyclopentyl-5,7-dimethyl-6-oxo-6,7,8,9-tetrahydro-5H-pyrimido[4,5-b][1,4]diazepin-2-ylamino)-N-(1-ethyl-piperidin-4-yl)-benzamide] | 500 to 5000
6 | COc1cc(C(=O)NC2CCN(C)CC2)ccc1Nc1ncc2c(n1)N(C1CCCC1)C(C)C(C)C(=O)N2C (racemic) [I-41, (rac)-4-(9-Cyclopentyl-5,7,8-trimethyl-6-oxo-6,7,8,9-tetrahydro-5H-pyrimido[4,5-b][1,4]diazepin-2-ylamino)-3-methoxy-N-(1-methyl-piperidin-4-yl)-benzamide] | < 500
7 | CC1CN(C2CCCC2)c2nc(Nc3cccc(C(=O)NC4CCCCC4)c3)ncc2N(C)C1=O (racemic) [I-91, (rac)-N-Cyclohexyl-3-(9-cyclopentyl-5,7-dimethyl-6-oxo-6,7,8,9-tetrahydro-5H-pyrimido[4,5-b][1,4]diazepin-2-ylamino)-benzamide] | > 5000
